Common to all, as to format: functional
In assay [1] the test system is Staphylococcus aureus. Briefly: Antibacterial activity against Staphylococcus aureus ATCC25923 assessed as bacterial growth inhibition after 24 hrs by broth dilution method. The note with it: ATCC25923, 24 h. In general terms: Dilution methods test growth across graded concentrations, often in twofold steps.
For assay [2], the system named is Staphylococcus epidermidis. As to the kind of experiment: Antibacterial activity against Staphylococcus epidermidis ATCC12228 assessed as bacterial growth inhibition after 24 hrs by broth dilution method. The note with it: ATCC12228, 24 h.
The next assay relates to Bacillus subtilis. Briefly: Antibacterial activity against Bacillus subtilis ATCC6633 assessed as bacterial growth inhibition after 24 hrs by broth dilution method. Conditions: ATCC6633, 24 h.
The next assay deals with Escherichia coli. Briefly: Antibacterial activity against Escherichia coli ATCC25922 assessed as bacterial growth inhibition after 24 hrs by broth dilution method. Conditions: ATCC25922, 24 h.
The subject of the next assay is Proteus vulgaris. Briefly: Antibacterial activity against Proteus vulgaris ATCC49101 assessed as bacterial growth inhibition after 24 hrs by broth dilution method. Conditions: ATCC49101, 24 h.
The next assay concerns Pseudomonas aeruginosa. Briefly: Antibacterial activity against Pseudomonas aeruginosa ATCC2785 assessed as bacterial growth inhibition after 24 hrs by broth dilution method. Conditions: ATCC2785, 24 h.
Assay [3] relates to Staphylococcus aureus. Briefly: Antibacterial activity against methicillin-resistant Staphylococcus aureus ATCC43300 assessed as bacterial growth inhibition after 24 hrs by broth dilution method. Conditions: ATCC43300, 24 h.
In assay [4] the test system is Staphylococcus aureus. Briefly: Antibacterial activity against methicillin-resistant Staphylococcus aureus ATCC523512 assessed as bacterial growth inhibition after 24 hrs by broth dilution method. Conditions: ATCC523512, 24 h.
In assay [5] the test system is Staphylococcus aureus. As to the kind of experiment: Antibacterial activity against methicillin-resistant Staphylococcus aureus ATCC425055 assessed as bacterial growth inhibition after 24 hrs by broth dilution method. The note with it: ATCC425055, 24 h.
Assay [6] deals with Staphylococcus aureus. As to the kind of experiment: Antibacterial activity against methicillin-resistant Staphylococcus aureus ATCC513045 assessed as bacterial growth inhibition after 24 hrs by broth dilution method. The note with it: ATCC513045, 24 h.
Assay [7] deals with Staphylococcus aureus. Briefly: Antibacterial activity against methicillin-resistant Staphylococcus aureus ATCC62202 assessed as bacterial growth inhibition after 24 hrs by broth dilution method. Conditions: ATCC62202, 24 h.
The subject of assay [8] is Staphylococcus aureus. As to the kind of experiment: Antibacterial activity against methicillin-resistant Staphylococcus aureus ATCC51033 assessed as bacterial growth inhibition after 24 hrs by broth dilution method. The note with it: ATCC51033, 24 h.
In assay [9] the test system is Staphylococcus aureus. As to the kind of experiment: Antibacterial activity against methicillin-resistant Staphylococcus aureus ATCC52056 assessed as bacterial growth inhibition after 24 hrs by broth dilution method. The note with it: ATCC52056, 24 h.
Assay [10] relates to Staphylococcus aureus. As to the kind of experiment: Antibacterial activity against methicillin-resistant Staphylococcus aureus ATCC515992 assessed as bacterial growth inhibition after 24 hrs by broth dilution method. The note with it: ATCC515992, 24 h.
In assay [11] the test system is Staphylococcus aureus. Briefly: Antibacterial activity against methicillin-resistant Staphylococcus aureus ATCC510019 assessed as bacterial growth inhibition after 24 hrs by broth dilution method. Conditions: ATCC510019, 24 h.

Converted amounts (≈) assume the structure as drawn.

This note sets out measurements from ChEMBL document CHEMBL3596195, “Novel cajaninstilbene acid derivatives as antibacterial agents” (Eur J Med Chem, 2015).

By MIC is commonly meant the lowest concentration that inhibits growth of the organism. On to `COc1cc(C)c(C(=O)O)c(O)c1CC=C(C)C`, for which the MIC is 32 µg/mL (≈ 128 µM) with Staphylococcus aureus [1]; 64 µg/mL (≈ 256 µM) in assay [2]; 64 µg/mL (≈ 256 µM) with Bacillus subtilis; above 128 µg/mL with Escherichia coli; above 128 µg/mL with Proteus vulgaris; above 128 µg/mL with Pseudomonas aeruginosa. The minimum inhibitory concentration (MIC) with Staphylococcus aureus [3], with Staphylococcus aureus [4], with Staphylococcus aureus [5], with Staphylococcus aureus [6], with Staphylococcus aureus [7] and in the assay on Staphylococcus aureus [8] was 32 µg/mL (≈ 128 µM) each time. Besides, the figures for the MIC in the assay with Staphylococcus aureus [9], in the assay on Staphylococcus aureus [10] and with Staphylococcus aureus [11] were 64 µg/mL (≈ 256 µM), 32 µg/mL (≈ 128 µM) and 64 µg/mL (≈ 256 µM), respectively.
Regarding `COc1cc(/C=C/c2ccc(F)cc2)c(C(=O)O)c(O)c1CC=C(C)C`, the MIC in the assay with Staphylococcus aureus [1] was 8 µg/mL (≈ 22.4 µM); in [2], 4 µg/mL (≈ 11.2 µM); in the assay with Bacillus subtilis it was 1 µg/mL (≈ 2.81 µM); with Escherichia coli it was above 128 µg/mL; in the assay with Proteus vulgaris it was above 64 µg/mL; in the assay with Pseudomonas aeruginosa it was above 64 µg/mL. The minimum inhibitory concentration (MIC) with Staphylococcus aureus [3] turned out to be 4 µg/mL (≈ 11.2 µM); with Staphylococcus aureus [4], 4 µg/mL (≈ 11.2 µM); with Staphylococcus aureus [5] it was 2 µg/mL (≈ 5.61 µM); with Staphylococcus aureus [6], 8 µg/mL (≈ 22.4 µM); in the assay on Staphylococcus aureus [7], 1 µg/mL (≈ 2.81 µM); with Staphylococcus aureus [8], 1 µg/mL (≈ 2.81 µM). For the same molecule, the minimum inhibitory concentration (MIC) in the assay on Staphylococcus aureus [9] amounted to 1 µg/mL (≈ 2.81 µM); in the assay with Staphylococcus aureus [10], 8 µg/mL (≈ 22.4 µM); in the assay with Staphylococcus aureus [11], 1 µg/mL (≈ 2.81 µM).
On to `COc1cc(/C=C/c2ccc(Cl)cc2)c(C(=O)O)c(O)c1CC=C(C)C`, for which the minimal inhibitory concentration (MIC) with Staphylococcus aureus [1] was 8 µg/mL (≈ 21.5 µM); in [2], 4 µg/mL (≈ 10.7 µM); in the assay with Bacillus subtilis it was 2 µg/mL (≈ 5.36 µM); with Escherichia coli it was 128 µg/mL (≈ 343 µM); in the assay with Proteus vulgaris it was above 64 µg/mL; in the assay on Pseudomonas aeruginosa it was above 64 µg/mL. Moreover, the minimum inhibitory concentration (MIC) was found to be 2 µg/mL (≈ 5.36 µM) in the assay with Staphylococcus aureus [3]; 4 µg/mL (≈ 10.7 µM) in the assay on Staphylococcus aureus [4]; 4 µg/mL (≈ 10.7 µM) in the assay on Staphylococcus aureus [5]; 4 µg/mL (≈ 10.7 µM) in the assay with Staphylococcus aureus [6]; 2 µg/mL (≈ 5.36 µM) in the assay on Staphylococcus aureus [7]; 0.5 µg/mL (≈ 1.34 µM) in the assay on Staphylococcus aureus [8]. The figures for the MIC in the assay on Staphylococcus aureus [9], in the assay with Staphylococcus aureus [10] and in the assay on Staphylococcus aureus [11] were 2 µg/mL (≈ 5.36 µM), 4 µg/mL (≈ 10.7 µM) and 1 µg/mL (≈ 2.68 µM), respectively.
As to `COc1ccc(/C=C/c2cc(OC)c(CC=C(C)C)c(O)c2C(=O)O)cc1`, the minimum inhibitory concentration (MIC) is 32 µg/mL (≈ 86.9 µM) in the assay on Staphylococcus aureus [1]; 32 µg/mL (≈ 86.9 µM) in assay [2]; 16 µg/mL (≈ 43.4 µM) in the assay on Bacillus subtilis; above 128 µg/mL in the assay with Escherichia coli; above 64 µg/mL with Proteus vulgaris; above 64 µg/mL with Pseudomonas aeruginosa. The minimum inhibitory concentration (MIC) with Staphylococcus aureus [3] turned out to be 16 µg/mL (≈ 43.4 µM); in the assay on Staphylococcus aureus [4], 16 µg/mL (≈ 43.4 µM); in the assay on Staphylococcus aureus [5], 8 µg/mL (≈ 21.7 µM); with Staphylococcus aureus [6], 16 µg/mL (≈ 43.4 µM); with Staphylococcus aureus [7], 16 µg/mL (≈ 43.4 µM); in the assay on Staphylococcus aureus [8], 32 µg/mL (≈ 86.9 µM). For the same molecule, the minimum inhibitory concentration (MIC) in the assay with Staphylococcus aureus [9], in the assay on Staphylococcus aureus [10] and in the assay on Staphylococcus aureus [11] was 16 µg/mL (≈ 43.4 µM) each time.
As for `COc1cc(/C=C/c2ccc(C)cc2)c(C(=O)O)c(O)c1CC=C(C)C`, the minimum inhibitory concentration (MIC) in the assay on Staphylococcus aureus [1] is 16 µg/mL (≈ 45.4 µM); in [2], 32 µg/mL (≈ 90.8 µM); with Bacillus subtilis it was 16 µg/mL (≈ 45.4 µM); with Escherichia coli, above 128 µg/mL; in the assay on Proteus vulgaris, above 64 µg/mL; with Pseudomonas aeruginosa it was above 64 µg/mL. The MIC in the assay with Staphylococcus aureus [3] worked out at 32 µg/mL (≈ 90.8 µM); in the assay with Staphylococcus aureus [4] it was 32 µg/mL (≈ 90.8 µM); in the assay on Staphylococcus aureus [5], 16 µg/mL (≈ 45.4 µM); in the assay on Staphylococcus aureus [6] it was 8 µg/mL (≈ 22.7 µM); with Staphylococcus aureus [7] it was 32 µg/mL (≈ 90.8 µM); in the assay on Staphylococcus aureus [8] it was 16 µg/mL (≈ 45.4 µM). For the same molecule, the MIC in the assay with Staphylococcus aureus [9] was 16 µg/mL (≈ 45.4 µM); with Staphylococcus aureus [10], 32 µg/mL (≈ 90.8 µM); with Staphylococcus aureus [11], 32 µg/mL (≈ 90.8 µM).
Consider `COc1cc(/C=C/c2cc(OC)c(OC)c(OC)c2)c(C(=O)O)c(O)c1CC=C(C)C`, for which the minimal inhibitory concentration (MIC) in the assay on Staphylococcus aureus [1] is 64 µg/mL (≈ 149 µM); in assay [2], 32 µg/mL (≈ 74.7 µM); in the assay on Bacillus subtilis, 16 µg/mL (≈ 37.3 µM); in the assay with Escherichia coli, above 128 µg/mL; in the assay on Proteus vulgaris, above 64 µg/mL; in the assay on Pseudomonas aeruginosa, above 64 µg/mL. For the same molecule, the MIC in the assay with Staphylococcus aureus [3] turned out to be 16 µg/mL (≈ 37.3 µM); in the assay on Staphylococcus aureus [4] it was 16 µg/mL (≈ 37.3 µM); with Staphylococcus aureus [5], 16 µg/mL (≈ 37.3 µM); in the assay on Staphylococcus aureus [6], 16 µg/mL (≈ 37.3 µM); in the assay on Staphylococcus aureus [7] it was 32 µg/mL (≈ 74.7 µM); with Staphylococcus aureus [8], 64 µg/mL (≈ 149 µM). Further, the MIC was 32 µg/mL (≈ 74.7 µM) with Staphylococcus aureus [9], 16 µg/mL (≈ 37.3 µM) in the assay with Staphylococcus aureus [10] and 16 µg/mL (≈ 37.3 µM) with Staphylococcus aureus [11].
`COc1cc(/C=C/c2cccc(C#N)c2)c(C(=O)O)c(O)c1CC=C(C)C`: the minimum inhibitory concentration (MIC) was 4 µg/mL (≈ 11 µM) with Staphylococcus aureus [1]; 2 µg/mL (≈ 5.5 µM) in assay [2]; 16 µg/mL (≈ 44 µM) with Bacillus subtilis; above 128 µg/mL with Escherichia coli; above 64 µg/mL with Proteus vulgaris; above 64 µg/mL in the assay on Pseudomonas aeruginosa. Moreover, the MIC in the assay with Staphylococcus aureus [3] came to 8 µg/mL (≈ 22 µM); with Staphylococcus aureus [4], 2 µg/mL (≈ 5.5 µM); in the assay with Staphylococcus aureus [5] it was 1 µg/mL (≈ 2.75 µM); with Staphylococcus aureus [6], 4 µg/mL (≈ 11 µM); in the assay on Staphylococcus aureus [7], 0.5 µg/mL (≈ 1.38 µM); in the assay on Staphylococcus aureus [8], 2 µg/mL (≈ 5.5 µM). The MIC in the assay with Staphylococcus aureus [9] came to 4 µg/mL (≈ 11 µM); in the assay on Staphylococcus aureus [10] it was 2 µg/mL (≈ 5.5 µM); in the assay with Staphylococcus aureus [11], 2 µg/mL (≈ 5.5 µM).
